The text below walks through data of patent publication US4577020A, “Aminoalkyl and aminoalkenyl triazoles as anti-psychotic agents” (The Upjohn Company, priority 1983, dated 1986).

Assay [1] is described as follows: standard laboratory test which indicates analgesic activity. The text has this:
However, the preferred use of the compounds of this invention is as anti-psychotic agents.

Assay [2] concerns the target T1, ^3 H-spiroperidol binding (Mus musculus, UniProt P61168).
T1 construct: from tissue; host or cells: brain of ICR mice: striata, septum, most of the olfactory tubercles, small part of ventral cortex (in vivo labelling)
Nature of the assay: In vivo spiroperidol binding assay. On the procedure:
D. In vivo spiroperidol Binding Assay
ICR strain mice, weighing about 20 gm, are given the test drugs or vehicle, i.p. or s.c., in 0.10 ml. Drug solutions are in saline, 0.1M citric acid, or 33% propylene glycol. After 1 hour, mice are given 66 micro-Curies (μCi)/kg of ^3 H-spiroperidol (specific activity […]) i.v. in 0.10 ml of saline. Four to 6 mice are given each test drug, and 4 of those which are successfully i.v. injected with the label are used for the rest of the experiment. At 3 hours (2 hours after the ^3 H-spiroperidol injection), the mice are sacrificed and the brains rapidly dissected. A section of brain tissue including the striata, septum, most of the olfactory tuberoles, and a small associated portion of the ventral edge of the cortex, is removed to dry ice. The tissues are weighed (usually 60-70 mg) and then dissolved in 1.0 ml of Protosol (New England Nuclear) overnight at about 40° C. The solutions are then neutralized with 80 μl of 6N HCl or 200 μl of 2.4N HCl, 15 ml of ACS counting solution (Amersham) is added, and the samples are counted by liquid scintillation spectroscopy. The amount of bound ^3 H-spiroperiodol, in cpm/mg tissue, is calculated for each test group and compared to the control group using the two-tailed Student's t test.
Of these tests, the in vivo spiroperidol binding assay is the most important indicator of antipsychotic activity. […]

T1 sequence (P61168 whole entry): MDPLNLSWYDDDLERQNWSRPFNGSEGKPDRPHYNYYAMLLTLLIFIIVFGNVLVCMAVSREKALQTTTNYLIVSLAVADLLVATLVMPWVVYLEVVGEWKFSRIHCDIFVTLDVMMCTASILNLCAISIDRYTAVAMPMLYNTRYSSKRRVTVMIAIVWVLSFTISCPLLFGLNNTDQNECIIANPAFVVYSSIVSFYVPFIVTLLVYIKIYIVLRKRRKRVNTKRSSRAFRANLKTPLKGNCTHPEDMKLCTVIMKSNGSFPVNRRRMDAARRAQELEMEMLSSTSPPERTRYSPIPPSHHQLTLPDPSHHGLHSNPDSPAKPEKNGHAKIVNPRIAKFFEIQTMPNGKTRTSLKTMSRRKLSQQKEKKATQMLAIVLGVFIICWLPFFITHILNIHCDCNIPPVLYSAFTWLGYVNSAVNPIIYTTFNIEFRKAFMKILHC

Take `Cc1nnc(C(C)(O)CCN(C)CCc2ccccc2)n1-c1ccccc1` (stereo not drawn) [Example 2]: the “analgesic activity (in words)” value in assay [1] is given as “effective”. In the case of `Cc1nnc(/C=C/CN2CCN(c3ccccc3)CC2)n1-c1ccccc1` [Example 3, (E)-1-[3-(5-methyl-4-phenyl-4H-1,2,4-triazol-3-yl)-2-propenyl]-4-phenyl-piperazine], the “effectiveness in the in vivo spiroperidol binding assay (in words)” value in assay [2] is “most effective”. Still for that read-out and setting: the entry for `CN(CCCc1nncn1-c1ccccc1)CCc1ccccc1` [N-methyl-4-phenyl-N-(2-phenylethyl)-4H-1,2,4-triazole-3-propanamine] is “most effective”.
